Measured values: US20050239656A1, “Pyridine compounds or salts thereof and herbicides containing the same” (priority 2002, published 2005)

Columns and labels:
[1] = tested on: crabgrass; experiment: Test Example 2: soil surface treatment, upland pot test; type: in vivo, Digitaria sanguinalis L.; conditions: active ingredient 500 g/ha
Description: (§1) Upland field soil was put into a 1/170,000 ha pot, and seed of various plants (barnyardgrass, crabgrass, green foxtail, redroot pigweed, prickly sida, velvetleaf, rice, wheat, corn, soybean) were sown. On the 1st day after the sowing, a wettable powder or emulsifiable concentrate having the compound of the present invention formulated in accordance with a usual formulation method, was weighed so that the active ingredient would be a predetermined amount, and diluted with water in an amount of 1,500 L/ha. The herbicide thus adjusted was applied by a small size sprayer for soil surface treatment. On the 20th to 28th days after the application of the herbicide, the growth of the respective plants was visually observed, and the herbicidal effects were evaluated by the growth controlling degrees (%) ranging from 0 (equivalent to the non-treated plot) to 100 (complete kill), whereby the results shown in Table 4, were obtained.

[2] = tested on: japanese bulrush; experiment: Test Example 3: paddy pot test, application under submerged conditions; type: in vivo, Scirpus juncoides; conditions: active ingredient 250 g/ha; submerged application at 0.5 leaf stage; visually observed 14 days after application; 0 = non-treated, 100 = complete kill
In short: (§2)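 After sowing seeds and planting wapato tubers in flooded paddy soil, an aqueous dilution of the formulated compound was added to the 3–4 cm flood water at early leaf stage. Percent growth control relative to the untreated plot was assessed visually on day 14.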

[3] = tested on: corn; experiment: Test Example 2: soil surface treatment, upland pot test; type: in vivo, Zea mays L.; conditions: active ingredient 500 g/ha
Description: as §1

[4] = tested on: barnyardgrass; experiment: Test Example 3: paddy pot test, application under submerged conditions; type: in vivo, Echinochloa crus-galli L.; conditions: active ingredient 250 g/ha; submerged application at 0.5 leaf stage; visually observed 14 days after application; 0 = non-treated, 100 = complete kill
In short: as §2

[5] = tested on: barnyardgrass; experiment: Test Example 2: soil surface treatment, upland pot test; type: in vivo, Echinochloa crus-galli L.; conditions: active ingredient 500 g/ha
Description: as §1

[6] = tested on: prickly sida; experiment: as above; type: in vivo, Sida spinosa L.; conditions: active ingredient 500 g/ha
Description: as §1

[7] = tested on: green foxtail; experiment: as above; type: in vivo, Setaria viridis L.; conditions: active ingredient 500 g/ha
Description: as §1

[8] = tested on: rice (var. Nihonbare); experiment: Test Example 3: paddy pot test, transplanted rice; type: in vivo, Oryza sativa L.; conditions: active ingredient 250 g/ha, applied 4th day after transplantation, visually observed 21st day after application, 0 = non-treated, 100 = complete kill
In short: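 Rice (2-leaf stage) was transplanted 3 cm deep into puddled, leveled paddy soil under 3–4 cm flooding. On day 4 after transplanting, diluted wettable powder or emulsifiable concentrate was pipetted onto the water at a predetermined active-ingredient dose. Growth control (0 = untreated, 100 = complete kill) was scored visually 21 days later.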

[9] = tested on: soybean; experiment: Test Example 2: soil surface treatment, upland pot test; type: in vivo, Glycine max Merr.; conditions: active ingredient 500 g/ha
Description: as §1

[10] = tested on: redroot pigweed; experiment: as above; type: in vivo, Amaranthus retroflexus L.; conditions: active ingredient 500 g/ha
Description: as §1

[11] = tested on: velvetleaf; experiment: as above; type: in vivo, Abutilon theophrasti MEDIC.; conditions: active ingredient 500 g/ha
Description: as §1

[12] = tested on: japanese ribbon wapato; experiment: Test Example 3: paddy pot test, application under submerged conditions; type: in vivo, Sagittaria pygniaea; conditions: active ingredient 250 g/ha; submerged application at primary leaf stage; visually observed 14 days after application; 0 = non-treated, 100 = complete kill
In short: as §2

[13] = tested on: rice; experiment: Test Example 2: soil surface treatment, upland pot test; type: in vivo, Oryza sativa L.; conditions: active ingredient 500 g/ha
Description: as §1

[14] = observed day 21, 0 = non-treated, 100 = complete kill

| Compound | Growth controlling degree (%) Crabgrass ([1]; observed 20th to 28th day) | Growth controlling degree (%) Japanese bulrush [2] | Growth controlling degree (%) Corn ([3]; observed 20th to 28th day) | Growth controlling degree (%) Barnyardgrass [4] | Growth controlling degree (%) Barnyardgrass ([5]; observed 20th to 28th day) | Growth controlling degree (%) Prickly sida ([6]; observed 20th to 28th day) | Growth controlling degree (%) Green foxtail ([7]; observed 20th to 28th day) | Growth controlling degree (%) Rice [8] | Growth controlling degree (%) Soyabean ([9]; observed 20th to 28th day) | Growth controlling degree (%) Redroot pigweed ([10]; observed 20th to 28th day) | Growth controlling degree (%) Velvetleaf ([11]; observed 20th to 28th day) | Growth controlling degree (%) Japanese ribbon wapato [12] | Growth controlling degree (%) Rice ([13]; observed 20th to 28th day) | further results |
| --- | --- | --- | --- | --- | --- | --- | --- | --- | --- | --- | --- | --- | --- | --- |
| CC(C)C(c1cnccc1C(F)(F)F)N(C)C(=O)COc1cccc(F)c1 (centres unmarked) [Compound I-242] | 98% | 95% | 40% | 100% | 98% | 98% | 100% | 0% | 10% | 90% | 70% | 70% | 10% | – |
| CC(C)C(c1cnccc1C(F)(F)F)N(C)C(=O)COc1ccccc1F (centres unmarked) [Compound I-243] | 100% | 98% | 40% | 100% | 90% | 90% | 100% | 0% | 10% | 80% | 30% | 70% | 10% | – |
| CC(C)C(c1cnccc1C(F)(F)F)N(C)C(=O)COc1cc(F)ccc1F (centres unmarked) [Compound I-245] | – | 95% | – | 100% | – | – | – | 10% | – | – | – | 70% | – | Growth controlling degree (%) Crabgrass [1, 14]: 80%; Growth controlling degree (%) Corn [3, 14]: 50%; Growth controlling degree (%) Barnyardgrass [5, 14]: 90%; Growth controlling degree (%) Prickly sida [6, 14]: 70%; Growth controlling degree (%) Green foxtail [7, 14]: 80%; Growth controlling degree (%) Soyabean [9, 14]: 40%; Growth controlling degree (%) Redroot pigweed [10, 14]: 50%; Growth controlling degree (%) Velvetleaf [11, 14]: 0%; Growth controlling degree (%) Rice [13, 14]: 35% |
| CC(C)C(c1cnccc1C(F)(F)F)N(C)C(=O)COc1ccc(F)cc1F (centres unmarked) [Compound I-246] | – | 98% | – | 100% | – | – | – | 10% | – | – | – | 70% | – | Growth controlling degree (%) Crabgrass [1, 14]: 95%; Growth controlling degree (%) Corn [3, 14]: 40%; Growth controlling degree (%) Barnyardgrass [5, 14]: 98%; Growth controlling degree (%) Prickly sida [6, 14]: 80%; Growth controlling degree (%) Green foxtail [7, 14]: 98%; Growth controlling degree (%) Soyabean [9, 14]: 40%; Growth controlling degree (%) Redroot pigweed [10, 14]: 50%; Growth controlling degree (%) Velvetleaf [11, 14]: 30%; Growth controlling degree (%) Rice [13, 14]: 20% |
| CC(C)C(c1cnccc1Cl)N(C)C(=O)Cc1ccc(Cl)cc1 (centres unmarked) [I-82] | 90% | 98% | 10% | 98% | 80% | 0% | 70% | 30% | 0% | 60% | 0% | 0% | 30% | – |
| Cc1cccc(CC(=O)N(C)C(c2cnccc2C(F)(F)F)C(C)C)c1 (centres unmarked) [I-87] | 98% | 90% | 40% | 100% | 100% | 100% | 95% | 0% | 0% | 85% | 70% | 70% | 0% | – |
| Cc1ccc(CC(=O)N(C)C(c2cnccc2C(F)(F)F)C(C)C)cc1 (centres unmarked) [I-94] | 100% | 98% | 10% | 100% | 100% | 100% | 100% | 0% | 0% | 98% | 80% | 90% | 10% | – |
| CCc1ccc(CC(=O)N(C)C(c2cnccc2C(F)(F)F)C(C)C)cc1 (centres unmarked) [I-95] | 98% | 98% | 10% | 100% | 95% | 80% | 90% | 0% | 30% | 60% | 30% | 20% | 10% | – |
| CC(C)C(c1cnccc1C(F)(F)F)N(C)C(=O)CCc1ccccc1 (centres unmarked) [I-169] | 98% | 50% | 40% | 100% | 100% | 90% | 100% | 10% | 30% | 70% | 20% | 0% | 40% | – |
| CC(C)C(c1cnccc1C(F)(F)F)N(C)C(=O)Cc1ccsc1 (centres unmarked) [I-170] | 98% | 100% | 50% | 100% | 100% | 95% | 100% | 0% | 35% | 30% | 30% | 70% | 30% | – |
| CC(C)C(c1cnccc1C(F)(F)F)N(C)C(=O)C=Cc1ccc(F)cc1 (centres unmarked) [I-172] | 98% | 98% | 10% | 100% | 40% | 80% | 95% | 0% | 0% | 60% | 10% | 95% | 20% | – |
